Experimental data from patent EP0670321A1, “Oxazopyrroloquinoline deivatives and use thereof” (MITSUBISHI GAS CHEMICAL COMPANY, INC., priority 1994, dated 1995).

Target: T1, recombinant human aldose reductase (Homo sapiens, UniProt P15121)
T1 construct: made in house; host or cells: Baculovirus-insect cell system
Assay: Aldose reductase inhibition (decrease with time in absorbance at 340 nm, NADPH / DL-glyceraldehyde)
Type: biochemical
Details: 0.1M phosphoric acid buffer, 25°C, absorbance 340 nm, read-out: IC₅₀
Text: A large amount of recombinant human aldose reductase was expressed in a Baculovirus-insect cell system by Nishimura et al method (Nishimura et al, J. Biol. Chem. volume 265, pages 9,788-9,792, 1990 and Biochem. Biophys. Acta. volume 1,078, pages 171-178, 1991; and Tanimoto and Nishimura, Experimental Medicine, volume 9, No. 5 (extra issue), pages 165-170, 1991). Purification was made by affinity chromatography, gel filtration and chromatofocusing until electrophoretically uniform aldose reductase was obtained.
To 0.1M phosphoric acid buffer solution (0.8 ml) was added 3mM NADPH (0.05 ml), DL-glyceral-dehyde (0.1 ml) and distilled water (0.04 ml). The mixture was left to stand at 25°C for three minutes. To the mixture was added aldose reductase solution (0.01 ml) in order to start a reaction. Measurement was made of reduction with time in absorbance of 340 nm at 25°C. The amount of enzyme that consumes 1µ mole of […] per minute was taken as a unit.
Enzyme activities were measured after aqueous inhibiting substance solution (0.04 ml each) having various concentrations in place of the distilled water (0.04 ml) under the same conditions as those for aldose reductase. IC₅₀ values that inhibit enzyme activity by 50% were calculated on the basis of enzyme activities measured in the presence or absence of the inhibitors. The inhibitors used include: 8,10-dicarboxy-2-methoxycarbonyl-1H-oxazo[5,4-h] pyrrolo[2,3-f]quinoline (Compound 1, abbreviated OPQ-8,10-DCA-2-ME); 8-carboxy-2,10-dimethoxycarbonyl-1H-oxazo[5,4-h] pyrrolo-[2,3-f]quinoline (Compound 2, abbreviated OPQ-8-CA-2,10-DME); 10-(N-n-amyl)carbamoyl-2,8-dicarboxy-1H-oxazo [5,4-h]pyrrolo[2,3-f]quinoline (Compound 3, abbreviated OPQ-2,8-DCA-10-AA); 10-(N-n-amyl)carbamoyl-8-carboxy-2-methoxy-carbonyl-1H-oxazo[5,4-h]pyrrolo[2,3-f]quinoline (Compound 4, abbreviated OPQ-8-CA-2-ME-10-AA); 2,10-dicarboxy-8-methoxycarbonyl-1H-oxazo[5,4-h] pyrrolo-[2,3-f]quinoline (abbreviated OPQ-2,10-DCA-8-ME); 10-carboxy-2,8-dimethoxycarbonyl-1H-oxazo[5,4-h] pyrrolo-[2,3-f]quinoline (abbreviated OPQ-10-CA-2,8-DME); 2,8,10-trimethoxycarbonyl-1H-oxazo[5,4-h]pyrrolo [2,3-f]-quinoline (abbreviated OPQ-2,8,10-TME); 10-carboxy-2-methoxycarbonyl-1H-oxazo[5,4-h] pyrrolo-[2,3-f]quinoline (abbreviated OPQ-10-CA-2-ME); 8,10-diethoxycarbonyl-2-methoxycarbonyl-1H-oxazo [5,4-hj]yrrolo[2,3-f]quinoline (abbreviated OPQ-2-ME-8,10-DME); 10-(N-n-amyl) carbamoyl-2,8-dimethoxycarbonyl-1H-oxazo[5,4-h]pyrrolo[2,3-f]quinoline (abbreviated OPQ-2,8-DME-10-AA); and 2,8,10-tri[(N-n-amyl)carbamoyl]-1H-oxazo[5,4-h] pyrrolo-[2,3-f]quinoline (abbreviated OPQ-2,8,10-TAA).

Row | Structure (SMILES) | IC50
1 | COC(=O)c1cc(C(=O)O)c2c(n1)c1ncoc1c1cc(C(=O)OC)[nH]c12 [OPQ-10-CA-2,8-DME, 10-carboxy-2,8-dimethoxycarbonyl-1H-oxazo[5,4-h] pyrrolo-[2,3-f]quinoline] | 1300 nM
2 | CCOC(=O)c1cc(C(=O)OCC)c2c(n1)c1ncoc1c1cc(C(=O)OC)[nH]c12 [OPQ-2ME-8,10-DEE, 8,10-diethoxycarbonyl-2-methoxycarbonyl-1H-oxazo [5,4-hj]yrrolo[2,3-f]quinoline] | > 100000 nM
3 | CCCCCNC(=O)c1cc(C(=O)O)nc2c3ncoc3c3cc(C(=O)O)[nH]c3c12 [Compound 3, 10-(N-n-amyl)carbamoyl-2,8-dicarboxy-1H-oxazo [5,4-h]pyrrolo[2,3-f]quinoline] | 260 nM
4 | COC(=O)c1cc2c([nH]1)c1c(C(=O)O)cc(C(=O)O)nc1c1ncoc21 [Compound 1, 8,10-dicarboxy-2-methoxycarbonyl-1H-oxazo[5,4-h] pyrrolo[2,3-f]quinoline] | 260 nM
5 | CCCCCNC(=O)c1cc(C(=O)NCCCCC)c2c(n1)c1ncoc1c1cc(C(=O)NCCCCC)[nH]c12 [OPQ-2,8,10-TAA, 2,8,10-tri[(N-n-amyl)carbamoyl]-1H-oxazo[5,4-h] pyrrolo-[2,3-f]quinoline] | 77000 nM
6 | COC(=O)c1cc2c([nH]1)c1c(C(=O)O)ccnc1c1ncoc21 [OPQ-10-CA-2ME, 10-carboxy-2-methoxycarbonyl-1H-oxazo[5,4-h] pyrrolo-[2,3-f]quinoline] | 1700 nM
7 | COC(=O)c1cc(C(=O)OC)c2c(n1)c1ncoc1c1cc(C(=O)OC)[nH]c12 [OPQ-2,8,10-TME, 2,8,10-trimethoxycarbonyl-1H-oxazo[5,4-h]pyrrolo [2,3-f]-quinoline] | > 100000 nM
8 | CCCCCNC(=O)c1cc(C(=O)OC)nc2c3ncoc3c3cc(C(=O)OC)[nH]c3c12 [OPQ-2,8-DME-10-AA, 10-(N-n-amyl) carbamoyl-2,8-dimethoxycarbonyl-1H-oxazo[5,4-h]pyrrolo[2,3-f]quinoline] | 93000 nM
9 | COC(=O)c1cc2c([nH]1)c1c(C(=O)OC)cc(C(=O)O)nc1c1ncoc21 [Compound 2, 8-carboxy-2,10-dimethoxycarbonyl-1H-oxazo[5,4-h] pyrrolo-[2,3-f]quinoline] | 580 nM
10 | CCCCCNC(=O)c1cc(C(=O)O)nc2c3ncoc3c3cc(C(=O)OC)[nH]c3c12 [Compound 4, 10-(N-n-amyl)carbamoyl-8-carboxy-2-methoxy-carbonyl-1H-oxazo[5,4-h]pyrrolo[2,3-f]quinoline] | 190 nM
11 | COC(=O)c1cc(C(=O)O)c2c(n1)c1ncoc1c1cc(C(=O)O)[nH]c12 [OPQ-2,10-DCA-8-ME, 2,10-dicarboxy-8-methoxycarbonyl-1H-oxazo[5,4-h] pyrrolo-[2,3-f]quinoline] | 2900 nM
